Laboratory results reported in US12030888B2, “Himastatin derivatives, and processes of preparation thereof, and uses thereof” (priority 2021, dated 2024).
In brackets after ≈: the same amount, converted by molar mass. Where two headings read alike, the source gives them in different places. Numbered stars: 1 amine (or outer) side, 2 acyl side, 3 side chain; on linkers, the order of the positions; unused ones are H or OH. Square brackets hold non-standard residues; d marks the D form. Peptide text beside a SMILES is read from it. X1 = O=C([C@@H]1C[C@@]2(O)c3ccccc3N[C@H]2N1[*:1])[*:2]; X2 = O=C([C@H]1C[C@]2(O)c3ccccc3N[C@@H]2N1[*:1])[*:2]; X3 = O=C([C@@H]1C[C@H](O)CNN1[*:1])[*:2]; dPiz(5R-OH) = O=C(O)[C@H]1C[C@@H](O)CNN1; Lys(N3) = [N-]=[N+]=NCCCC[C@H](N)C(=O)O; NMeV = CN[C@H](C(=O)O)C(C)C; dHiv = CC(C)[C@@H](O)C(=O)O; Hiv = CC(C)[C@H](O)C(=O)O

Assays:
[1] = tested on: Vancomycin-Resistant Enterococcus faecalis (V583); type: cell-based; settings: Vancomycin-Resistant (V583)
Protocol: (§1) Bacillus subtilis subsp. spizizenii (ATCC 6633) and Streptomyces himastatinicus (ATCC 53653) were obtained from the American Type Culture Collection (ATCC). Methicillin-resistant and methicillin-susceptible Staphylococcus aureus (Newman), and vancomycin-resistant (V583) and vancomycin-susceptible (T7) Enterococcus faecalis were obtained from the lab of Dr. Roby P. Bhattacharyya (Massachusetts General Hospital).^6 B. subtilis was grown in brain-heart infusion (BHI) medium at 37° C., S. himastatinicus was grown in tryptone-yeast extract broth (ISP medium 2) at 28° C., E. faecalis was grown in Todd-Hewitt broth, and all other organisms were grown in lysogeny broth (LB) medium at 37° C.
(§2) Minimum inhibitory concentration (MIC) was determined using the broth microdilution method. 20-fold stocks of compound in DMSO were diluted 10-fold in MHB medium and 100 μL of each were added to the first well of a 96-well plate. 50 μL of the first well was then serially diluted through 50 μL MHB medium in wells 2-11. To prepare the bacterial culture, an overnight culture was diluted in MHB until the turbidity matched that of McFarland standard 0.5. Then, the culture was diluted 1:100 and added to wells 1-11, resulting in 2-fold dilutions of antibiotic beginning at 64 μg/mL and a final inoculum of 5×10^5 cfu/mL. 100 μL of MHB medium was added to well 12 as a sterility control, and a row containing no antibiotic was used as a growth control. The plate was incubated at the organism's respective growth temperature overnight (B. subtilis) or 72 h (S. himastatinicus) and the MIC was determined using OD600.
(§3) Minimum inhibitory concentration (MIC) was determined using the broth microdilution method.^7 20-fold (1.28 mg/mL) stocks of compound in dimethylsulfoxide, stored as frozen (−80° C.) 30-μL aliquots, were diluted 10-fold in Mueller Hinton broth (MHB) and a 100-μL sample of each was added to the first well of a 96-well plate. A 50-μL sample of the first well was then serially diluted two-fold through 50-μL NMB medium in wells 2-11. A bacterial culture was prepared from a frozen (−80° C.) stock in the organism's respective growth medium and grown overnight. The culture was then diluted in MHB until the turbidity matched that of McFarland standard 0.5 by measuring the optical density at 600 nm (1×10^8 cfu/mL). Then, the culture was diluted 1:100 and a 50-μL aliquot was added to wells 1-11, resulting in 2-fold dilutions of antibiotic from 64 μg/mL down to 0.0625 μg/mL and a final inoculum of 5×10^5 cfu/mL. A 100-μL aliquot of MHB medium was added to well 12 as a sterility control, and a row containing no antibiotic was used as a growth control. The plate was incubated at the organism's respective growth temperature overnight or 72 h (S. himastatinicus). The MIC was determined by observing the well density by eye and, with the exception of S. himastatinicus which grows in solid colonies in media, was confirmed by measuring the optical density of each well at 600 nm. At least two assays were conducted for each organism on identical lots of compound. No degradation of compound stocks in dimethylsulfoxide was observed by LC-MS analysis after being subjected to multiple freeze-thaw cycles.

[2] = tested on: Bacillus subtilis (ATCC 6633); type: cell-based; settings: for MIC (μg/mL) B. subtilis: ATCC 6633; for MIC in Bacillus subtilis: text and figure legend
Protocol: as §1, §2, §3

[3] = tested on: Methicillin-Resistant Staphylococcus aureus; type: cell-based; settings: Methicillin-Resistant
Protocol: as §1, §2, §3

[4] = tested on: Streptomyces himastatinicus (ATCC 53653); type: cell-based; settings: ATCC 53653, 72 h
Protocol: as §1, §2, §3

[5] = tested on: Methicillin-Sensitive S. aureus (Newman); type: cell-based, Staphylococcus aureus; settings: Newman
Protocol: as §1, §2, §3

[6] = tested on: Vancomycin-Sensitive E. faecalis (T7); type: cell-based, Enterococcus faecalis; settings: Vancomycin-Sensitive (T7)
Protocol: as §1, §2, §3

Gram-positive bacteria = type: cell-based; settings: relative to (−)-himastatin (1) where a derivative
Protocol: as §1, §2, §3

SMILES	MIC (μg/mL) VRE faecalis [1]	MIC (μg/mL) B. subtilis [2]	MIC (μg/mL) MRSA [3]	MIC (μg/mL) S. himastatinicus [4]	MIC (μg/mL) MSSA [5]	MIC (μg/mL) VSE faecalis [6]	antibiotic activity (in words) (Gram-positive bacteria)	antibiotic activity (in words) (Gram-positive bacteria; listed as (−)-19)	MIC in Bacillus subtilis [2]	MIC in Bacillus subtilis ([2]; listed as TAMRA-himastatin)	antibiotic activity (in words) (Gram-positive bacteria; listed as (−)-15)
CC(C)C[C@@H]1NC(=O)[C@H]2C[C@@H](O)CNN2C(=O)[C@H](C(C)C)NC(=O)[C@@H](C(C)C)NC(=O)[C@@H]2C[C@@]3(O)c4ccccc4N[C@H]3N2C(=O)[C@@H]([C@H](C)O)NC1=O [(+)-25, Cyclic Hexapeptide] (cyclo(L[dT][X1][dV]V[dPiz(5R-OH)]))	>64 µg/mL	>64 µg/mL	>64 µg/mL	>64 µg/mL	>64 µg/mL	>64 µg/mL					
CC(C)C[C@@H]1NC(=O)[C@H]2CCCN2C(=O)[C@H](C(C)C)OC(=O)[C@@H](C(C)C)NC(=O)[C@@H]2C[C@@]3(O)c4cc(-c5ccc6c(c5)[C@]5(O)C[C@H]7C(=O)N[C@H](C(C)C)C(=O)O[C@@H](C(C)C)C(=O)N8CCC[C@@H]8C(=O)N[C@@H](CC(C)C)C(=O)N[C@H]([C@H](C)O)C(=O)N7[C@@H]5N6)ccc4N[C@H]3N2C(=O)[C@@H]([C@H](C)O)NC1=O [(−)-30, Himastatin Proline Derivative]	>64 µg/mL	>64 µg/mL	>64 µg/mL	>64 µg/mL	>64 µg/mL	>64 µg/mL	complete abolishment of antibiotic activity	antibiotic activity was completely abolished			
CC(C)C[C@@H]1NC(=O)[C@H]2C[C@@H](O)CNN2C(=O)[C@H](C(C)C)N(C)C(=O)[C@@H](C(C)C)NC(=O)[C@@H]2C[C@@]3(O)c4ccccc4N[C@H]3N2C(=O)[C@@H]([C@H](C)O)NC1=O [(+)-27, N-Methyl Cyclic Hexapeptide] (cyclo(L[dT][X1][dV][NMeV][dPiz(5R-OH)]))	>64 µg/mL	>64 µg/mL	>64 µg/mL	>64 µg/mL	>64 µg/mL	>64 µg/mL					
CC(C)C[C@@H]1NC(=O)[C@H]2C[C@@H](O)CNN2C(=O)[C@H](C(C)C)OC(=O)[C@@H](C(C)C)NC(=O)[C@@H]2C[C@@]3(O)c4ccccc4N[C@H]3N2C(=O)[C@@H]([C@H](C)O)NC1=O [(+)-6, Himastatin Monomer, reference compound] (cyclo([Hiv][dPiz(5R-OH)]L[dT][X1][dV]))	>64 µg/mL	>64 µg/mL	>64 µg/mL	>64 µg/mL	>64 µg/mL	>64 µg/mL	inactive				
CC(C)[C@@H]1OC(=O)[C@@H](C(C)C)NC(=O)[C@@H]2C[C@@]3(O)c4ccccc4N[C@H]3N2C(=O)[C@@H]([C@H](C)O)NC(=O)[C@H](CCCCN=[N+]=[N-])NC(=O)[C@H]2C[C@@H](O)CNN2C1=O [(+)-31, Azido Cyclic Depsihexapeptide] (cyclo([Hiv][dPiz(5R-OH)][Lys(N3)][dT][X1][dV]))	>64 µg/mL	>64 µg/mL	>64 µg/mL	>64 µg/mL	>64 µg/mL	>64 µg/mL					
CC(C)C[C@@H]1NC(=O)[C@H]2C[C@@H](O)CNN2C(=O)[C@H](C(C)C)OC(=O)[C@@H](C(C)C)NC(=O)[C@@H]2C[C@@]3(O)c4cc(-c5ccc6c(c5)[C@]5(O)C[C@H]7C(=O)N[C@H](C(C)C)C(=O)O[C@@H](C(C)C)C(=O)N8NC[C@H](O)C[C@@H]8C(=O)N[C@@H](CCCCNC(=O)c8ccc9c(c8)C(=O)OC98c9ccc(N(C)C)cc9Oc9cc(N(C)C)ccc98)C(=O)N[C@H]([C@H](C)O)C(=O)N7[C@@H]5N6)ccc4N[C@H]3N2C(=O)[C@@H]([C@H](C)O)NC1=O [(−)-25, TAMRA Himastatin Heterodimer]									6 µg/mL (≈ 3.14 µM)	~8 µg/mL (≈ 4.18 µM)	
CC(C)C[C@@H]1NC(=O)[C@H]2CCCN2C(=O)[C@H](C(C)C)OC(=O)[C@@H](C(C)C)NC(=O)[C@@H]2C[C@@]3(O)c4ccccc4N[C@H]3N2C(=O)[C@@H]([C@H](C)O)NC1=O [(+)-29, Proline Cyclic Depsihexapeptide] (cyclo([Hiv][dP]L[dT][X1][dV]))	>64 µg/mL	>64 µg/mL	>64 µg/mL	>64 µg/mL	>64 µg/mL	>64 µg/mL					
CC(C)C[C@@H]1NC(=O)[C@H]2C[C@@H](O)CNN2C(=O)[C@H](C(C)C)N(C)C(=O)[C@@H](C(C)C)NC(=O)[C@@H]2C[C@@]3(O)c4cc(-c5ccc6c(c5)[C@]5(O)C[C@H]7C(=O)N[C@H](C(C)C)C(=O)N(C)[C@@H](C(C)C)C(=O)N8NC[C@H](O)C[C@@H]8C(=O)N[C@@H](CC(C)C)C(=O)N[C@H]([C@H](C)O)C(=O)N7[C@@H]5N6)ccc4N[C@H]3N2C(=O)[C@@H]([C@H](C)O)NC1=O [(−)-28, Himastatin N-Methyl Lactam Derivative]	>64 µg/mL	>64 µg/mL	>64 µg/mL	>64 µg/mL	>64 µg/mL	>64 µg/mL	decreasing antibiotic activity				
CC(C)C[C@H]1NC(=O)[C@@H]2C[C@H](O)CNN2C(=O)[C@@H](C(C)C)OC(=O)[C@H](C(C)C)NC(=O)[C@H]2C[C@]3(O)c4ccccc4N[C@@H]3N2C(=O)[C@H]([C@@H](C)O)NC1=O [(−)-6, ent-himastatin monomer] (cyclo([dL]T[X2]V[dHiv][X3]))	>64 µg/mL	>64 µg/mL	>64 µg/mL	8 µg/mL (≈ 10.8 µM)	>64 µg/mL	>64 µg/mL					
CC(C)C[C@@H]1NC(=O)[C@H]2C[C@@H](O)CNN2C(=O)[C@H](C(C)C)NC(=O)[C@@H](C(C)C)NC(=O)[C@@H]2C[C@@]3(O)c4cc(-c5ccc6c(c5)[C@]5(O)C[C@H]7C(=O)N[C@H](C(C)C)C(=O)N[C@@H](C(C)C)C(=O)N8NC[C@H](O)C[C@@H]8C(=O)N[C@@H](CC(C)C)C(=O)N[C@H]([C@H](C)O)C(=O)N7[C@@H]5N6)ccc4N[C@H]3N2C(=O)[C@@H]([C@H](C)O)NC1=O [(−)-26, Himastatin Lactam Derivative]	32 µg/mL (≈ 21.6 µM)	8 µg/mL (≈ 5.39 µM)	32 µg/mL (≈ 21.6 µM)	>64 µg/mL	16 µg/mL (≈ 10.8 µM)	16 µg/mL (≈ 10.8 µM)	modest reduction in antibiotic activity				decreasing antibiotic activity
